This passage reports IC50 and Activity results from ChEMBL document CHEMBL5032490, “Neuroactive Type-A γ-Aminobutyric Acid Receptor Allosteric Modulator Steroids from the Hypobranchial Gland of Marine Mollusk, Conus geographus” (J Med Chem, 2021).

pIC50: −log10 of the molar value.

Assay [1] deals with T1, GABA-A receptor; alpha-1/beta-3/gamma-2 (Homo sapiens, UniProt P14867+P18507+P28472).
T1 sequence (P14867 whole entry): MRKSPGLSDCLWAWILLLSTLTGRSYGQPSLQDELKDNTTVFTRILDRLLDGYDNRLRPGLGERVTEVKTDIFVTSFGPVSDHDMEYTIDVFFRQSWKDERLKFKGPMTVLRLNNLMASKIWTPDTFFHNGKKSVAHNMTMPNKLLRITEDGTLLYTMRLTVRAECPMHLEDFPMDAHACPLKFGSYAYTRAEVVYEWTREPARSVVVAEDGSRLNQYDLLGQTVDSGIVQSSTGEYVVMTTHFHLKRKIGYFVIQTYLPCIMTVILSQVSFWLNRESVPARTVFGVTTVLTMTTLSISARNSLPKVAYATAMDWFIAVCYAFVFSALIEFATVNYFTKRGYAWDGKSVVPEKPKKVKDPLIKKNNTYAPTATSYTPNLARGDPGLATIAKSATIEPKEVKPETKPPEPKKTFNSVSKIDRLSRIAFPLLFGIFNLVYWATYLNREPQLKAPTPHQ
T1 sequence (P18507 whole entry): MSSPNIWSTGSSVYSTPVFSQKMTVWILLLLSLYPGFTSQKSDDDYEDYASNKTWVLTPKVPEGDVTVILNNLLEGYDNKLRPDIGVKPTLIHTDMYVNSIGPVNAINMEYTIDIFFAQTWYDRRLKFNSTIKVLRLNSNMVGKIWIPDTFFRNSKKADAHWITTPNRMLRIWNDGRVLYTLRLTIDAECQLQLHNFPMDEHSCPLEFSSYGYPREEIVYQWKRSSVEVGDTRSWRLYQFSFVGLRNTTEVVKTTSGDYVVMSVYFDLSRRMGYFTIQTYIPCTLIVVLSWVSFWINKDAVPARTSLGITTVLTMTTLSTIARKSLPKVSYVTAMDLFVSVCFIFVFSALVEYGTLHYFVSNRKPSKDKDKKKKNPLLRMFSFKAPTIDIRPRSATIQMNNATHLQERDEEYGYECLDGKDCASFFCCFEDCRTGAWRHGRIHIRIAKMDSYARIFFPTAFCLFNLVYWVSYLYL
T1 sequence (P28472 whole entry): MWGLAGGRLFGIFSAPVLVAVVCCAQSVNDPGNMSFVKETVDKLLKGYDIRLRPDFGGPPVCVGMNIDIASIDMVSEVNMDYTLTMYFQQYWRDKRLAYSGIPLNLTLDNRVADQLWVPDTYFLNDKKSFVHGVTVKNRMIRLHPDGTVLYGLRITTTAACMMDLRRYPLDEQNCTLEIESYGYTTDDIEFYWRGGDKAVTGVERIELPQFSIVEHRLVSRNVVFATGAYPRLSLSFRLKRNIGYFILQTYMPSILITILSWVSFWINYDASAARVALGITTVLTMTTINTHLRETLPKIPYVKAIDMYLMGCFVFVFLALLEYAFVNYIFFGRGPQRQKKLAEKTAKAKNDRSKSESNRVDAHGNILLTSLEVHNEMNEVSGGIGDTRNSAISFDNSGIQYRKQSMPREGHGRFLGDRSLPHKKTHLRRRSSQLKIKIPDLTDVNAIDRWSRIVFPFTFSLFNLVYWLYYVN
The experiment in a line: Negative allosteric modulation activity at human GABAA alpha1beta3gamma2 stably expressed in HEK cells by whole cell patch clamp method. In kind it is cell-based.

Assay [2] deals with T2, GABA A receptor alpha-1/beta-1/gamma-2 (Homo sapiens, UniProt P14867+P18505+P18507).
T2 sequence (P14867 whole entry): T1 sequence (P14867 whole entry)
T2 sequence (P18507 whole entry): T1 sequence (P18507 whole entry)
T2 sequence (P18505 whole entry): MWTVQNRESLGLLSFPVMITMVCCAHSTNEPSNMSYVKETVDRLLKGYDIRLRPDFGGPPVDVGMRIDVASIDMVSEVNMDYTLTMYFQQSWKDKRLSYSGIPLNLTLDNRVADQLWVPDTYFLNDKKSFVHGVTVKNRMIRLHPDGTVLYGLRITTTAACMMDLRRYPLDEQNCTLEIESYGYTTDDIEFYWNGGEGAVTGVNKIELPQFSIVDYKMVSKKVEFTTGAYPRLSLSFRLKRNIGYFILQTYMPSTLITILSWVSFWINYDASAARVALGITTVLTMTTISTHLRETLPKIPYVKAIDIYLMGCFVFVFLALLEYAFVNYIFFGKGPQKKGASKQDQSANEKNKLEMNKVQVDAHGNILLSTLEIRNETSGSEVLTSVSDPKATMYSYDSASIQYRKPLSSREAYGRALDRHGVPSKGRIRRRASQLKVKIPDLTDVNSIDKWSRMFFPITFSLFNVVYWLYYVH
The experiment in a line: Negative allosteric modulation activity at human GABAA alpha1beta1gamma2 stably expressed in HEK cells by whole cell patch clamp method. In kind it is cell-based. In general terms: The patch-clamp technique gives a direct electrical read-out from membranes.

Assay [3] is described as follows: Induction of ATP and Kcl-induced increase in cytosolic Ca2+ ion concentration mouse […] assessed as neuron population at 10 uM measured after 1 hr by Fura2AM dye based fluorescence microscopic analysis. Format: functional.

By pIC50 is commonly meant −log10 of the IC50, conventionally taken in molar units. A lower pIC50 goes with a large IC50. Take `CC(C)CCC[C@@H](C)[C@H]1CC[C@H]2[C@@H]3C(=O)C=C4C=CCC[C@]4(C)[C@H]3CC[C@]12C`: the pIC50 in assay [1] is 4.68; in assay [2] it was 5.82. Moreover, the Activity in assay [3] is on record as 4%.
